“Also recorded” adds a separate entry of the source. Where two headings read alike, the source gives them in different places.
Columns and labels:
humoral immunoresistance = assay: Susceptibility to bacterial infections in treated rats; type: in vivo; conditions: sustained period, high doses
Text: An inhibition of the humoral immune system (antibody-producing B-lymphocytes) by the substances of the invention and a possibility of therapy resulting from this, e.g., for autoaggression diseases, which are characterized by an increase in antibody production against the body's own tissues, can currently only be concluded indirectly.

in vivo = conditions: mouse, po
L1210 leukemia = type: in vivo, CD2 mice; conditions: for Mean Survival Time: controls 8; for % Increase in Mean Survival Time (toxic death): mouse, in vivo, po
Text: Preparation: As suspension freshly prepared
before each administration
Route of Oral, suspended in 0.8%
administration: Methocel
Volume: 0.01 per gram body weight
daily for 9 days, if not
L 1210/Rij adaptation of L1210 leukemia in CD2 mice (C57B1×DBA2,Fl hybrid). On the day before administration of the substance 10^5 leukemic cells are inoculated intraperitoneally. The cages are controlled 2×X daily for dead animals. The terminal point is the mean survival of five mice/dosage compared with ten untreated controls.

L5222 leukemia = L5222 leukemia (CCLS test); type: in vivo, mice; conditions: IP PO
Text: The two types of assays used were the standard CCTM test for solid tumors and the CCLS test for leukemia.
The CCLS assay assesses the antitumor activity of a test agent by measurement of the treatment-induced increase in host lifespan. Only rapidly growing tumors that kill their respective hosts in less than 30 days are appropriate for life span assays.
Test animals are appropriate Fl hybrid mice derived for the inbred strain of tumor origin. After the required mice are randomized, they receive implants (IP, IV, IC, IM, or SC) of appropriately diluted ascites fluid or dilutions of tumor brei on Day 0. […]
Test agents are dissolved or suspended in any of several vehicles and are administered by the routes and treatment schedules specified on the test protocol. All animals are monitored for signs of acute toxicity and side effects.
Survival is checked daily for each test group. Both the number dead and the number living are counted and recorded. […] Clinical signs are observed and recorded for all test groups. Group body weights are recorded at least weekly as directed in the specific test protocol. […]
Td=tumor volume doubling time (days), calculated from the slope of a log-linear least square fit of the survival time vs inoculum curve for titrated inocula of tumor cells in untreated mice.
MLS=median life span, calculated by a method appropriate for grouped observations. […]

[1] = system: Mammary adenocarcinoma 16; assay: Mammary adenocarcinoma 16 (CCTM test); type: in vivo, mice; conditions: SC PO, Days 1-16, 56 mg/kg
Protocol: (§1) The CCTM assay assesses the antitumor activity of a test agent by measurement of the treatment-induced delay of tumor growth. Tumor growth delay is used because, unlike T/C type assays, the measured parameter is independent of time.
(§2) Test animals are Fl hybrid mice derived from the inbred strain of tumor origin. After the required mice are randomized, they receive SC implants of either trocar fragments (30-50 mg) or appropriate dilutions of tumor brei on Day 0. Samples for each donor tumor or from the final brei are incubated in thioglycolate media as a check for gross contamination of the tumor material. After tumor inoculation, the test mice are rerandomized and distributed to test group as per the specific test protocol.
Survival is checked daily for each test group. Both the number dead and the number living are counted and recorded. All dead mice are autopsied to ascertain the probable cause of death (drug or tumor). Clinical signs are observed and recorded for all test groups. Individual body weights are recorded at least weekly as directed in the specific test protocol. Each tumor is measured with calipers as per the protocol (usually two to three times/week). […]
This time may be calculated as:
Td=tumor volume doubling time (days), calculated from the slope of a long-linear least squares fit of the growth curve between 63 and 1000 mg for each control tumor. […]
T,C=median time in days for the tumor in a given group to reach a predetermined evaluation size (usually 750 mg). […] These values are calculated by log/linear interpolation between the nearest tumor measurements on either side of the evaluation size. […]
(§3) All tumor-free survivors (cures) are excluded from the calculation of T-C and cell kill values. Thus, all calculated end points represent the response of the treatment failures.

growing hair follicle = assay: Antiproliferative activity upon topical administering to rats (hair growth); type: in vivo, Long Evans rats; conditions: 0.5% solution in absolute ethanol, 5-10 mg/animal daily
Protocol: No control standard known
Preparation: Fresh before each
Route of Topically by pipetting as
administration: 0.5% solution in absolute
Volume: 1 ml per animal and dose
Tested dose: 5 mg/animal daily for 14 days
10 mg/animal daily for 7 days
A protective collar is placed on male rats of the Long Evans strain, fur color "black-hooded." A rectangle measuring 3 cm long and 1.5 cm wide is marked with the aid of a template on the dorsal skin in the region of the black dorsal hair strip subsequent to shaving and cleansing. The test solution is slowly applied dropwise to this rectangle, so as to avoid it running off onto the surrounding skin. The solvent is applied in the same manner to the control animals. After 21 days of treatment the hair growth is assessed on the treated areas compared with the control areas.

Distribution coefficient = type: physicochemical; conditions: n-octanol/water pH 7.4/20° C.; read-out: log VK (distribution coefficient)
Text: This is also the case with intragastric application, as shown by certain pharmacological effects.

[2] = system: Mammary adenocarcinoma 25; assay: Mammary adenocarcinoma 25 (CCTM test); type: in vivo, mice
Protocol: as §1, §2
Survival is checked daily for each test group. Both the number dead and the number living are counted and recorded. All dead mice are autopsied to ascertain the probable cause of death (drug or tumor). Clinical signs are observed and recorded for all test groups. Individual body weights are recorded at least weekly as directed in the specific test protocol. Each tumor is measured with calipers as per the protocol (usually two to three times/week).
Any surviving animal with a tumor that is larger than the smallest lethal control tumor for two successive measurements will be sacrificed unless:
This time may be calculated as:
Td=tumor volume doubling time (days), calculated from the slope of a long-linear least squares fit of the growth curve between 63 and 1000 mg for each control tumor. The mean value for the control group is used for all other calculations that require Td.
T,C=median time in days for the tumor in a given group to reach a predetermined evaluation size (usually 750 mg). T=treated groups/C=control group. These values are calculated by log/linear interpolation between the nearest tumor measurements on either side of the evaluation size.
T-C=tumor growth delay in days (treatment minus control).
Gross Log Kill=total number of logs of tumor cell kill produced by the given treatment regimen.
Gross Kill=(T-C)/3.32*Td)
Net Log Kill=the difference in logs between the tumor burden after the last treatment and the initial pretreatment burden. Net kill reflects the effectiveness of the overall therapy accounting for the growth of the tumor between individual treatments of the therapeutic regimen. Net kill allows valid comparisons of different treatment regimens, i.e., those with different durations of treatment that allow different amounts of tumor growth during therapy.
Net Kill=[(T-C)-DRx]/(3.32*Td)
as §3

[3] = system: MNU-induced rat mammary tumor; assay: MNU-induced mammary tumor (CCTR); type: in vivo; conditions: for % T/C / Rating: PO, 4 times daily, Days 1-5 for 5 weeks
Text: Doses just under the acutely lethal dose can be given indefinitely (for more than 30 days), during which the treated animals regain their initial weight loss.

Pentetrazole-convulsion = Pentetrazole-convulsion model; type: in vivo; conditions: Mus musculus, po; i.g., mice
[4] = system: peripheral leukocytes and lymphocytes; assay: Influence on peripheral leukocytes and lymphocytes in rhesus monkeys; type: in vivo; conditions: 1× daily 10 mg/kg i.g.
Protocol: Dosage: 1×daily 10 mg/kg i.g.
FIG. 1: Rhesus monkey ZE, .female.
FIG. 2: Rhesus monkey YL, .female.

[5] = system: murine tumors and human tumor xenografts; assay: Antineoplastic activity in tumor-carrying animals, general statements; type: in vivo, mice
allogeneic skin grafts = assay: Trial I, skin graft survival test in rats (recipient Long Evans, donor Lewis), vs azathioprine + methylprednisolone; type: in vivo
Protocol: Route of Intragastric via stomach tube,
suspended in 0.8% Methocel
Volume: 0.01 ml per gram body weight and dose
Trial I/from Day -3 before grafting to Day +6
Trial I/10 mg/kg over 6 days, afterwards 5 mg/kg
Two allogeneic skin grafts from a donor rat are transferred to a receiving rat from an unrelated inbred strain. The panniculus carnosus attached to the graft may either be removed by dissection (suprapannicular graft) or be left on the graft (subpannicular graft). Grafting is conducted on Day 0 under light ether narcosis subsequent to shaving and cleanup of the grafting sites. The grafts are fixed on the graft receptor sites by dressing with a suitable bandage. From Day +9 a protective colar is placed on the animals, the bandage removed, and the status of the grafts daily controlled. The assessment of the graft function is conducted by means of a graduation scale, which allows for differentiation of rejection corresponding to a three-degree of severity score. The trial ends on the day when 50% of the animals of one group have rejected both grafts. The lengthening of the graft survival time in comparison to the controls is determined in days.
Recipient: Long Evans .male., Donor: Lewis .male.. Two suprapannicular grafts were transferred from a donor to a recipient.

[6] = intragastric / oral, vs untreated control

Nc1ccc(C(=O)Nc2ccccc2N)cc1 [Substance A, 4-Amino-N-(2'-aminophenyl)-benzamide]
susceptibility to bacterial infections (humoral immunoresistance): increased susceptibility to bacterial infections
LD50 at 168 h (in vivo): 625 mg/kg
Mean Survival Time (L1210 leukemia; 4 × 180 mg/kg PO, n = 5): 5 days
Mean Survival Time (L1210 leukemia; 4 × 240 mg/kg PO, n = 5): 5 days
Mean Survival Time (L1210 leukemia; 7 × 120 mg/kg PO, n = 5): 6 days
% Increase in Mean Survival Time (L1210 leukemia; 9 × 60 mg/kg PO, n = 5): 38%
Mean Survival Time (L1210 leukemia; 9 × 60 mg/kg PO, n = 5): 11 days
assessment of activity (L1210 leukemia; moderate dosage): significant activity
% Increase in Mean Survival Time (toxic death) (L1210 leukemia; 120 mg/kg): toxic death
% Increase in Mean Survival Time (toxic death) (L1210 leukemia; 180 mg/kg): toxic death
% Increase in Mean Survival Time (toxic death) (L1210 leukemia; 240 mg/kg): toxic death
% T/C (L5222 leukemia; Days 1, 4, 7, 48 mg/kg): 150%
% T/C (L5222 leukemia; Days 1-9, 15 mg/kg): 169%
(T-C) tumor growth delay [1]: 11 days
Cell Kill Gross [1]: 3.0 log10
Cell Kill Net [1]: -1.2 logs
inhibition of hair growth / topical antiproliferative action (growing hair follicle): clear inhibition of hair growth; also recorded: distinct antiproliferate action
logD (Distribution coefficient): 2.2
% T/C ([2]; SC PO, Days 3-24, 50 mg/kg): 0%
cures ([2]; SC PO, Days 3-24, 50 mg/kg, 6 out of 10 cures): 6/10
(T-C) tumor growth delay ([2]; SC PO, Days 25-36, 50 mg/kg): 16 days
Cell Kill Net ([2]; SC PO, Days 25-36, 50 mg/kg): 1.6 logs
anticancer activity ([2]; mammary 25): significant anticancer activity has been demonstrated and confirmed
anticancer activity ([3]; MNU-induced rat mammary tumor): significant anticancer activity has been demonstrated and confirmed
% T/C ([3]; 7.5 mg/kg): 3.5%
Rating ([3]; 7.5 mg/kg): AA (≤10% T/C High Activity)
% T/C ([3]; 10 mg/kg): 7.8%
Rating ([3]; 10 mg/kg): AA (≤10% T/C High Activity)
ED50 (Pentetrazole-convulsion): 44 mg/kg
reduction of the peripheral lymphocytes [4]: simultaneous distinct reduction of the peripheral lymphocytes
tumor regression late in an extended treatment regimen ([5]; after just two days' rest): partial regression of tumors
average survival time of tumor-carrying mice [5, 6]: significant increase in the average survival time
retardation in tumor growth [5, 6]: distinct retardation in the growth of the tumor
schedule dependence of activity ([5]; mouse, in vivo): schedule-dependent, with once daily treatment superior to either more highly fractionated or to intermittent regimens
cures and cell kills ([5]; oral, refractory tumor models in mice): significant number of cures and cell kills
anticancer activity, overall ([5]; spectrum of preclinical tumor models): significant activity against a spectrum of preclinical tumor models
effect compared with standard medication (allogeneic skin grafts; Trial I, vs azathioprine and methylprednisolone): superior to an immunosuppressive standard medication comprising azathioprine and methylprednisolone
effect compared with comparison medication (allogeneic skin grafts; rats, both trials, far smaller substance quantities): at least equally as effective as the comparison medication
